# Measurements taken from patent US4314028A, “Fermentation process for producing tallysomycin compounds” (priority 1980, dated 1982).
# Key:
# Sarcoma 180 = experiment: animal or person; type: in vivo, dd-strain mice; details: copper-chelated form unless otherwise stated
# Outline: (§1)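 P388 (3×10^5 cells) and Lewis lung (5×10^5) i.p. in BDF1 mice, B16 (5×10^5) s.c. in BDF1, Sarcoma 180 ([…]) i.p. in male dd mice. ED125 (Sarcoma 180 ED150) from median-survival T/C, 45 days; B16 ID50 from day-16 tumor size.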
# [1] = system: Mycobacterium smegmatis strain M6-3; experiment: Relative antibacterial potency, paper-disc agar diffusion method; type: cell-based; details: relative to tallysomycin A standard=1000 mcg/mg
# Procedure: The relative antibacterial potencies (tallysomycin A standard=1000 mcg/mg) of the tallysomycin derivatives were determined by the paper-disc agar diffusion method using Mycobacterium smegmatis strain M6-3 as the assay organism.
# [2] = in vivo
# [3] = system: lysogenic bacterium E. coli W1709 (λ); experiment: Prophage induction of lysogenic bacterium (ILB activity); type: cell-based; details: t/c ratio of plaque counts greater than 3.0
# Outline: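 Plaques counted on agar plates containing test compound and on control plates, following Lein et al. A test/control plaque ratio above 3.0 counted as significant. Value given as the minimum inducible concentration.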
# [4] = Nephrotoxicity in a mouse model utilizing BUN measurement; type: in vivo; details: compared with bleomycin at equitoxic doses
# malignant tumors = experiment: Initial studies using experimental animals: antitumor activity; type: in vivo; details: broad spectrum of malignant tumors; copper-free and copper-chelated forms
# Melanotic melanoma B16 = experiment: Antitumor activity in mice, melanotic melanoma B16; type: in vivo, BDF1 mice; details: copper-chelated form unless otherwise stated
# Outline: as §1
# [5] = Acute toxicity, single dose LD50; type: in vivo, dd mice; details: ip, 30 days observation, copper-chelated form unless otherwise stated
# Procedure: Graded doses of test compounds were administered intraperitoneally to groups of dd mice. The injection was given one time only or once daily for 9 consecutive days. Death or survival of the animals was recorded for 30 days after the last dose of test compound to calculate the single or multiple median lethal dose (LD50).
# [6] = in vivo; remark: listed apart in the source
# Proteus mirabilis A9554 = experiment: MIC, two-fold agar dilution method; type: cell-based; details: nutrient agar
# Outline: (§2)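 Two-fold agar dilution; nutrient agar for bacteria, Sabouraud agar for A. fumigatus. MIC = lowest inhibitory concentration.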
# Sarcina lutea PCI1001 = experiment: MIC, two-fold agar dilution method; type: cell-based; details: nutrient agar
# Outline: (§3)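 MICs were determined by serial two-fold dilution in agar. The bacterial strains (S. aureus Smith, Mycobacterium 607, Sarcina lutea PCI1001) were grown on nutrient agar, and Aspergillus fumigatus IAM 2593 on Sabouraud agar.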
# Escherichia coli NIHJ = experiment: MIC, two-fold agar dilution method; type: cell-based; details: nutrient agar
# Outline: as §2
# [7] = system: Aspergillus fumigatus IAM 2593; experiment: MIC, two-fold agar dilution method; type: cell-based; details: Sabouraud agar
# Outline: as §3
# [8] = system: Candida albicans IAM 4888; experiment: MIC, two-fold agar dilution method; type: cell-based; details: Sabouraud agar
# Outline: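 Compounds are diluted two-fold through agar plates: Sabouraud medium for the fungus, nutrient medium for the bacterial strains, including the acid-fast Mycobacterium 607. Organisms are then applied and the minimum inhibitory concentration is recorded.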
# Mycobacterium 607 = experiment: MIC, two-fold agar dilution method; type: cell-based; details: nutrient agar
# Outline: as §3
# [9] = system: Bacillus subtilis PCI 219; experiment: MIC, two-fold agar dilution method; type: cell-based; details: nutrient agar
# Outline: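 Agar dilution (2-fold series) on nutrient agar (bacteria) or Sabouraud agar (fungi).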
# [10] = system: Staphylococcus aureus Smith; experiment: MIC, two-fold agar dilution method; type: cell-based; details: nutrient agar
# Outline: as §3
compound,measurement,setting,value
Cc1c(N)nc([C@H](CC(N)=O)NC[C@H](N)C(N)=O)nc1C(=O)N[C@H](C(=O)N[C@H](C)[C@@H](O)CC(=O)N[C@H](C(=O)NC(O[C@@H]1O[C@@H](C)[C@@H](N)[C@@H](O)[C@H]1O)C(O)c1nc(-c2nc(C(=O)NCCCCN)cs2)cs1)[C@@H](C)O)[C@@H](O[C@@H]1O[C@@H](CO)[C@@H](O)[C@H](O)[C@@H]1O[C@H]1O[C@H](CO)[C@@H](O)[C@H](OC(N)=O)[C@@H]1O)c1cnc[nH]1 (stereo partly drawn) [Tallysomycin S10b],Antitumor activity S180 (ED150),"Sarcoma 180; ip, once daily 9 days, effective dose 150, survival",0.03 mg/kg/day
same,Antitumor therapeutic index S180,Sarcoma 180; single dose LD50/ED150,900
same,Antibacterial potency,[1],"1,100 μ/mg"
same,"dose response slope, lung hydroxyproline",[2],flatter than that observed with bleomycin
same,hydroxyproline content at high doses,[2],reduced compared to that of animals treated with bleomycin at equitoxic doses
same,lung hydroxyproline,[2],caused an increase in lung hydroxyproline suggesting pulmonary toxicity
same,ILB activity (minimum inducible concentration),[3],0.31 µg/mL
same,toxicity to the kidney (BUN),[4],no greater than that of bleomycin at equitoxic doses
same,antitumor activity,malignant tumors,excellent antitumor activity against a broad spectrum of malignant tumors
same,Antitumor activity B16 (ID50),"Melanotic melanoma B16; ip, once daily 9 days, 50% inhibition of tumor growth, day 16, 23040 min",0.59 mg/kg/day
same,Antitumor therapeutic index B16,Melanotic melanoma B16; single dose LD50/ID50,46
same,LD50 single dose,[5],27 mg/kg/day
same,undesirable side effects (e.g. nephrotoxicity),[6],less undesirable side effects (e.g. nephrotoxicity) than the naturally-occurring tallysomycin A and B
same,minimum inhibitory concentration (MIC),Proteus mirabilis A9554,3.1
same,minimum inhibitory concentration (MIC),Sarcina lutea PCI1001,3.1
same,minimum inhibitory concentration (MIC),Escherichia coli NIHJ,0.8
same,minimum inhibitory concentration (MIC),[7],6.3
same,minimum inhibitory concentration (MIC),[8],12.5
same,minimum inhibitory concentration (MIC),Mycobacterium 607,0.2
same,minimum inhibitory concentration (MIC),[9],0.2
same,minimum inhibitory concentration (MIC),[10],6.3
